In paper PMC5602572, “New carboxamide derivatives bearing benzenesulphonamide as a selective COX-II inhibitor: Design, synthesis and structure-activity relationship” (PLoS ONE, 2017):
Where two headings read alike, the source gives them in different places.

Assays:
COX-1 = target: T1, COX-1 (Ovis aries, UniProt P05979); experiment: In vitro cyclooxygenase inhibitory assay (Cayman colorimetric COX (ovine) inhibitor screening kit), COX-1; type: biochemical; details: read-out: COX-1 (%) inhibition
T1 construct: purchased Cayman chemicals, USA
T1 sequence (P05979 25-600): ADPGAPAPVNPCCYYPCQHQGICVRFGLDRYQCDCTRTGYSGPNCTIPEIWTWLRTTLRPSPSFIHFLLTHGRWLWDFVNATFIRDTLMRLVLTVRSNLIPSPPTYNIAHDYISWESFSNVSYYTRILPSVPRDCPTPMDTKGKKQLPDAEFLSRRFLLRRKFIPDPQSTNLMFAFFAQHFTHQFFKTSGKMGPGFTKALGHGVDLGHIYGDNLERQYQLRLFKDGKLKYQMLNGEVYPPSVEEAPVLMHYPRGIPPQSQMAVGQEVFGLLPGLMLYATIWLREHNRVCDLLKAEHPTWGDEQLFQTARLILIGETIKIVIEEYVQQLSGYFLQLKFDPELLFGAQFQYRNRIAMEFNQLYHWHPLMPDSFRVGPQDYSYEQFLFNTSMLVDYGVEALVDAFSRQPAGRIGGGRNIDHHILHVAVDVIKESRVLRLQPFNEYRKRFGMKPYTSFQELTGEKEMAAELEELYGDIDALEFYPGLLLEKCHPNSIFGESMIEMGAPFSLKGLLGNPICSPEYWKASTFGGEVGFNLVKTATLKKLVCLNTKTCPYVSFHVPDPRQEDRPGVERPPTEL
Description: (§1) The calculations were performed as per the kit guidelines.

[1] = test system: carrageenan induced rat paw edema; experiment: carrageenan-induced rat paw edema bioassay; type: in vivo; details: % inhibition of carrageenan induced rat paw edema, intraperitoneal; for Anti-inflammatory activity, 0.5 h (%): 0.5 h after treatment; for Anti-inflammatory activity, 1 h (%): 1 h after treatment; for Anti-inflammatory activity, 2 h (%): 2 h after treatment; for Anti-inflammatory activity, 3 h (%): 3 h after treatment
Description: Male albino rats weighing 300 g where purchased from the Department of Zoology and Environmental Biology, University of Nigeria, Nsukka and kept at room temperature in a light controlled animal house. They were fasted with free access to water at least 12 h prior to the experiments. […] The positive control received celecoxib while the negative control received only the vehicle. Edema was produced by injecting 0.2 mL of a solution of 1% carrageenan in the hind paw. The rats were injected intraperitoneally with 1 mL suspension in 0.5% methylcellulose of the tested compounds and reference drug. Paw volume was measured by water displacement with a plethysmometer (UGO BASILE) before, 30 min, 1 h, 2 h and 3 h after treatment. The percentage was calculated by the following equation [25].
Anti-inflammatory activity (%) = (1-D/C)[…], where D represents the difference in paw volume before and after drug administration to the rats and C represents the difference of volume in the control groups. The approval for the use of animal was obtained from the University of Nigeria committee on experimental animal use. No sign of death was observed during the experiment.

[2] = Determination of LD50 in mice; details: mouse, in vivo, ip; male mice, intraperitoneal, observation 72 h
Description: Male mice were divided into various groups and test compounds were administered in various doses intraperitoneally. […] All behavioral changes and deaths during the observation periods were recorded. The percentage of death at each dose level was then calculated, converted to probits and the LD50 (μM/kg) values were calculated. To observe the health status of the mice, they were monitored 4 times a day. […] For the purpose of ameliorating the suffering of the dying mice, CO2 euthanasia was applied. All the dead mice were disposed in bio-safety containers in accordance with local standard protocols. The mortality rate in each group was calculated according to the formula: Mortality rate(%)=(the number of dead mice/the number of mice in the group)×100.

COX-2 = target: T2, COX-2 (Ovis aries, UniProt P79208); experiment: In vitro cyclooxygenase inhibitory assay (Cayman colorimetric COX (ovine) inhibitor screening kit), COX-2; type: biochemical; details: for inhibition at 2 µM: read-out: COX-2 (%) inhibition; for S I (selectivity COX-2/COX-1): ratio of % inhibition COX-2/COX-1 at 2.0 μM; for selectivity for COX-2 (in words): from COX-2/COX-1 % inhibition at 2.0 μM
T2 construct: purchased Cayman chemicals, USA
T2 sequence (P79208 17-603): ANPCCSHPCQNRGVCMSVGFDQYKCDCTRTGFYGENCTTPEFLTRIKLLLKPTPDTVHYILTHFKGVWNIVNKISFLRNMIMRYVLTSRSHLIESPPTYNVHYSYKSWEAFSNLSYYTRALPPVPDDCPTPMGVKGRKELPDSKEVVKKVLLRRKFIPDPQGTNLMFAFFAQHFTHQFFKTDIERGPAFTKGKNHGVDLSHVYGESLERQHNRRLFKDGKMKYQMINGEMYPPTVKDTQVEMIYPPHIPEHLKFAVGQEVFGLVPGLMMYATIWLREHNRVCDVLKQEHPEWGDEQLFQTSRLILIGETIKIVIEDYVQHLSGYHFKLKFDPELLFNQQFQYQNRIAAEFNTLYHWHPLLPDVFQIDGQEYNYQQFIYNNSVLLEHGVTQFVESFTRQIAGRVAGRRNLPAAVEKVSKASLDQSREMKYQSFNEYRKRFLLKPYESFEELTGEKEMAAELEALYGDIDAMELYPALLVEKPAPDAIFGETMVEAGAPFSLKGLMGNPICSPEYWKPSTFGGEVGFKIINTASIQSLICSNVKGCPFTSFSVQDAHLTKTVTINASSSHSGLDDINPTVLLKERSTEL
Description: as §1

Row | Compound | inhibition at 2 µM (COX-1) [%] | Anti-inflammatory activity, 0.5 h (%) [1] [%] | Anti-inflammatory activity, 1 h (%) [1] [%] | Anti-inflammatory activity, 2 h (%) [1] [%] | Anti-inflammatory activity, 3 h (%) [1] [%] | LD50 at 72 h [2] [µmol/kg] | inhibition at 2 µM (COX-2) [%] | inhibition at 2 µM (COX-1; concentration of 2.0 μM) [%] | inhibition at 2 µM (COX-2; concentration of 2.0 μM) [%] | S I (selectivity COX-2/COX-1) (COX-2) | selectivity for COX-2 (in words) (COX-2)
1 | Cc1ccnc(NC(=O)[C@@H]2CCCN2S(=O)(=O)c2ccc([N+](=O)[O-])cc2)c1 [Compound 7h, (2S)-N-(4-methylpyridin-2-yl)-1-(4-nitrobenzenesulfonyl)pyrrolidine-2-carboxamide] | 30 | 27.69 | 17.06 | 16.59 | 16.05 | 10.7 | 13 |  |  |  | 
2 | Cc1ccc(-c2cc(C(F)(F)F)nn2-c2ccc(S(N)(=O)=O)cc2)cc1 [Celecoxib, celecoxib, reference compound] |  | 56.92 | 63.53 | 64.84 | 82.60 | 9.8 |  |  |  |  | 
3 | Cc1ccnc(NC(=O)CN(C(=O)c2ccccc2)S(=O)(=O)c2ccc([N+](=O)[O-])cc2)c1 [Compound 7a, N-(4-methylpyridin-2-yl)-2-[N-(4-nitrobenzenesulfonyl)-1-phenylformamido]acetamide] |  | 24.62 | 18.82 | 14.24 | 11.85 | 12.9 |  | 14 | 49 | 3.5 | 
4 | Cc1ccc(S(=O)(=O)N(C(=O)c2ccccc2)[C@@H](Cc2cc3ccccc3[nH]2)C(=O)Nc2cc(C)ccn2)cc1 [Compound 7k, (2S)-3-(1H-indol-2-yl)-2-[N-(4-methylbenzenesulfonyl)-1-phenylformamido]-N-(4-methylpyridin-2-yl)propanamide] |  | 42.12 | 56.12 | 70.89 |  | 9.2 |  | 3 | 56 | 18.67 | 
5 | Cc1ccc(S(=O)(=O)N(C(=O)c2ccccc2)[C@@H](CC(C)C)C(=O)Nc2cc(C)ccn2)cc1 [Compound 7l, (2S)-4-Methyl-2-[N-(4-methylbenzenesulfonyl)-1-phenylformamido]-N-(4-methylpyridin-2-yl) pentanamide] |  | 26.15 | 19.88 | 18.28 | 16.67 | 12.5 |  | 20 | 19 | 0.95 | non-selective
6 | CCC(C)[C@@H](C(=O)Nc1cc(C)ccn1)N(C(=O)c1ccccc1)S(=O)(=O)c1ccc(C)cc1 (stereo partly drawn) [Compound 7m, (2S)-3-Methyl-2-[N-(4-methylbenzenesulfonyl)-1-phenylformamido]-N-(4-methylpyridin-2-yl) pentanamide] |  | 13.85 | 12.35 | 8.59 | 8.58 | 11.9 |  | 17 | 25 | 1.47 | non-selective
7 | Cc1ccc(S(=O)(=O)N(C(=O)c2ccccc2)[C@@H](Cc2ccccc2)C(=O)Nc2cc(C)ccn2)cc1 [Compound 7j, (2S)-2-[N-(4-methylbenzenesulfonyl)-1-phenylformamido]-N-(4-methylpyridin-2-yl)-3-phenyl propanamide] |  | 41.54 | 40.59 | 39.84 | 36.42 | 17.6 |  | 10 | 30 | 3.00 | 
